According to patent publication US8557741B2, “3-aminocarbonyl-substituted benzoylcyclohexanediones and their use as herbicides” (Bayer CropScience AG, priority 2010, dated 2013):

What was measured:
Assay type in all cases: in vivo
Abutilon theophrasti [1] = assay: Pre-emergence herbicidal action against harmful plants; settings: Abutilon theophrasti, 504 h, read-out: Herbicidal action against ABUTH; for pest or weed control at 320 g/ha: dosage 320 g/ha, visual assessment after 3 weeks (Table A); for pest or weed control at 80 g/ha: dosage 80 g/ha, visual assessment after 3 weeks (Table B)
Excerpt: (§1) The abbreviations used in the tables below denote: • ABUTH Abutilon theophrasti • AMARE Amaranthus retroflexus • ECHCG Echinochloa crus galli • PHBPU Phartoitis purpureum • STEME Stellaria media • ALOMY Alopecurus myosuroides • AVEFA Avena fatua • MATIN Matricaria inodora • POLCO Fallopia convolvulus • VERPE Veronica persica 1. Pre-emergence Herbicidal Action Against Harmful Plants Seeds of monocotyledonous and dicotyledonous weed plants and crop plants are placed in wood-fibre pots in sandy loam and covered with soil. The compounds according to the invention and the compounds known from the prior art, formulated in the form of wettable powders (WP) or as emulsion concentrates (EC), are then applied as aqueous suspension or emulsion at a water application rate of 600 to 800 I/ha (converted) with the addition of 0.2% of wetting agent to the surface of the covering soil. After the treatment, the pots are placed in a greenhouse and kept under good growth conditions for the test plants. The visual assessment of the damage to the test plants is carried out after a trial period of 3 weeks by comparison with untreated controls (herbicidal activity in percent (%): 100% activity=the plants have died, 0% activity=like control plants, —=not tested). The results of comparative table A show the compounds according to the invention have a higher herbicidal activity than the compounds of the greatest structural similarity known from the closest prior art.

Alopecurus myosuroides = assay: as above; settings: dosage 320 g/ha, visual assessment after 3 weeks (Table A)
Excerpt: as §1

Amaranthus retroflexus [2] = assay: as above; settings: 504 h, read-out: Herbicidal action against AMARE; for pest or weed control at 320 g/ha: dosage 320 g/ha, visual assessment after 3 weeks (Table A); for pest or weed control at 80 g/ha: dosage 80 g/ha, visual assessment after 3 weeks (Table B)
Excerpt: as §1

Echinochloa crus galli [3] = assay: as above; settings: Echinochloa, 504 h, dosage 320 g/ha, visual assessment after 3 weeks (Table A), read-out: Herbicidal action against ECHCG
Excerpt: as §1

Matricaria inodora [4] = assay: as above; settings: Tripleurospermum inodorum, 504 h, dosage 320 g/ha, visual assessment after 3 weeks (Table A), read-out: Herbicidal action against MATIN
Excerpt: as §1

Stellaria media [5] = assay: as above; settings: 504 h, read-out: Herbicidal action against STEME; for pest or weed control at 320 g/ha: dosage 320 g/ha, visual assessment after 3 weeks (Table A); for pest or weed control at 80 g/ha: dosage 80 g/ha, visual assessment after 3 weeks (Table B)
Excerpt: as §1

Veronica persica [6] = assay: as above; settings: 504 h, read-out: Herbicidal action against VERPE; for pest or weed control at 320 g/ha: dosage 320 g/ha, visual assessment after 3 weeks (Table A); for pest or weed control at 80 g/ha: dosage 80 g/ha, visual assessment after 3 weeks (Table B)
Excerpt: as §1

Abutilon theophrasti [7] = assay: Post-emergence herbicidal action against harmful plants; settings: 504 h, read-out: Herbicidal action against ABUTH; for pest or weed control at 80 g/ha: dosage 80 g/ha, visual rating after about 3 weeks (Table D); for pest or weed control at 20 g/ha: dosage 20 g/ha, visual rating after about 3 weeks (Table F)
Excerpt: (§2) The abbreviations used in the tables below denote: • ABUTH Abutilon theophrasti • AMARE Amaranthus retroflexus • ECHCG Echinochloa crus galli • PHBPU Phartoitis purpureum • STEME Stellaria media • ALOMY Alopecurus myosuroides • AVEFA Avena fatua • MATIN Matricaria inodora • POLCO Fallopia convolvulus • VERPE Veronica persica 1. Pre-emergence Herbicidal Action Against Harmful Plants Seeds of monocotyledonous and dicotyledonous weed and crop plants are placed in sandy loam in wood-fibre pots, covered with soil and cultivated in a greenhouse under good growth conditions. 2 to 3 weeks after sowing, the test plants are treated at the one-leaf stage. The compounds according to the invention, formulated in the form of wettable powders (WP) or as emulsion concentrates (EC), are then sprayed as aqueous suspension or emulsion at a water application rate of 600 to 800 I/ha (converted) with the addition of 0.2% of wetting agent onto the green parts of the plants. After the test plants have been kept in the greenhouse under optimum growth conditions for about 3 weeks, the activity of the preparations is rated visually in comparison to untreated controls (herbicidal activity in percent (%): 100% activity=the plants have died, 0% activity=control plants, —=not tested).

Amaranthus retroflexus [8] = assay: as above; settings: 504 h, read-out: Herbicidal action against AMARE; for pest or weed control at 80 g/ha: dosage 80 g/ha, visual rating after about 3 weeks (Table D); for pest or weed control at 20 g/ha: dosage 20 g/ha, visual rating after about 3 weeks (Table F)
Excerpt: as §2

Echinochloa crus galli [9] = assay: as above; settings: 504 h, read-out: Herbicidal action against ECHCG; for pest or weed control at 80 g/ha: dosage 80 g/ha, visual rating after about 3 weeks (Table D); for pest or weed control at 20 g/ha: dosage 20 g/ha, visual rating after about 3 weeks (Table F)
Excerpt: as §2

Fallopia convolvulus = assay: as above; settings: 504 h, dosage 80 g/ha, visual rating after about 3 weeks (Table D), read-out: Herbicidal action against POLCO
Excerpt: as §2

Phartoitis purpureum = assay: as above; settings: 504 h; for pest or weed control at 80 g/ha: dosage 80 g/ha, visual rating after about 3 weeks (Table D), read-out: Herbicidal action against PHBPU; for pest or weed control at 20 g/ha: dosage 20 g/ha, visual rating after about 3 weeks (Table F), read-out: Herbicidal action against PHPBU
Excerpt: as §2

Stellaria media [10] = assay: as above; settings: 504 h, read-out: Herbicidal action against STEME; for pest or weed control at 80 g/ha: dosage 80 g/ha, visual rating after about 3 weeks (Table D); for pest or weed control at 20 g/ha: dosage 20 g/ha, visual rating after about 3 weeks (Table F)
Excerpt: as §2

Veronica persica [11] = assay: as above; settings: 504 h, read-out: Herbicidal action against VERPE; for pest or weed control at 80 g/ha: dosage 80 g/ha, visual rating after about 3 weeks (Table D); for pest or weed control at 20 g/ha: dosage 20 g/ha, visual rating after about 3 weeks (Table F)
Excerpt: as §2

Avena fatua = assay: Pre-emergence herbicidal action against harmful plants; settings: dosage 320 g/ha, visual assessment after 3 weeks (Table A)
Excerpt: as §1

Matricaria inodora [12] = assay: Post-emergence herbicidal action against harmful plants; settings: Tripleurospermum inodorum, 504 h, read-out: Herbicidal action against MATIN; for pest or weed control at 80 g/ha: dosage 80 g/ha, visual rating after about 3 weeks (Table D); for pest or weed control at 20 g/ha: dosage 20 g/ha, visual rating after about 3 weeks (Table F)
Excerpt: as §2

VIOTR [13] = assay: as above; settings: dosage 20 g/ha, visual rating after about 3 weeks (Table F)
Procedure: as §2, with “Seeds” for “The abbreviations used in the tables below denote: • ABUTH Abutilon theophrasti • AMARE Amaranthus retroflexus • ECHCG Echinochloa crus galli • PHBPU Phartoitis purpureum • STEME Stellaria media • ALOMY Alopecurus myosuroides • AVEFA Avena fatua • MATIN Matricaria inodora • POLCO Fallopia convolvulus • VERPE Veronica persica 1. Pre-emergence Herbicidal Action Against Harmful Plants Seeds”

VIOTR [14] = assay: Pre-emergence herbicidal action against harmful plants; settings: dosage 80 g/ha, visual assessment after 3 weeks (Table B)
Excerpt: as §1, with “Seeds” for “The abbreviations used in the tables below denote: • ABUTH Abutilon theophrasti • AMARE Amaranthus retroflexus • ECHCG Echinochloa crus galli • PHBPU Phartoitis purpureum • STEME Stellaria media • ALOMY Alopecurus myosuroides • AVEFA Avena fatua • MATIN Matricaria inodora • POLCO Fallopia convolvulus • VERPE Veronica persica 1. Pre-emergence Herbicidal Action Against Harmful Plants Seeds”

Row | SMILES | pest or weed control at 320 g/ha (Abutilon theophrasti [1]) | pest or weed control at 320 g/ha (Amaranthus retroflexus [2]) | pest or weed control at 320 g/ha (Echinochloa crus galli [3]) | pest or weed control at 320 g/ha (Matricaria inodora [4]) | pest or weed control at 320 g/ha (Stellaria media [5]) | pest or weed control at 320 g/ha (Veronica persica [6]) | pest or weed control at 80 g/ha (Abutilon theophrasti [7]) | pest or weed control at 80 g/ha (Amaranthus retroflexus [8]) | pest or weed control at 80 g/ha (Echinochloa crus galli [9]) | pest or weed control at 80 g/ha (Fallopia convolvulus) | pest or weed control at 80 g/ha (Phartoitis purpureum) | pest or weed control at 80 g/ha (Stellaria media [10]) | pest or weed control at 80 g/ha (Veronica persica [11]) | pest or weed control at 80 g/ha (Abutilon theophrasti [1]) | pest or weed control at 20 g/ha (Phartoitis purpureum) | pest or weed control at 20 g/ha (Stellaria media [10]) | pest or weed control at 20 g/ha (Veronica persica [11]) | Herbicidal action against VIOTR (VIOTR [13]) | further results
1 | CCS(=O)(=O)c1ccc(C(=O)C2=C(O)CCCC2=O)c(C(F)(F)F)c1OCC(=O)N(C)C [Compound E5] | 100% | 100% | 100% | 100% | 90% | 100% | 90% | 80% | 90% | 80% | 90% | 90% | 100% |  |  |  |  |  | Herbicidal action against ALOMY (Alopecurus myosuroides): 100%
2 | CCN(C)C(=O)COc1c(S(C)(=O)=O)ccc(C(=O)C2=C(O)CCCC2=O)c1C(F)(F)F [Compound E7] | 100% | 100% | 100% | 100% | 100% | 100% | 90% | 100% | 90% | 80% | 100% | 100% | 100% |  |  |  |  |  | Herbicidal action against AVEFA (Avena fatua): 80%; pest or weed control at 80 g/ha (Matricaria inodora [12]): 100%
3 | CCS(=O)(=O)c1ccc(C(=O)C2=C(SCC(=O)OC)CCCC2=O)c(C(F)(F)F)c1OCC(=O)N(C)C [Compound E9] |  |  |  |  |  |  |  |  |  |  |  |  |  | 90% | 80% | 90% | 100% | 100% | pest or weed control at 80 g/ha (Amaranthus retroflexus [2]): 90%; pest or weed control at 80 g/ha (Veronica persica [6]): 90%; pest or weed control at 20 g/ha (Abutilon theophrasti [7]): 100%; pest or weed control at 20 g/ha (Echinochloa crus galli [9]): 90%
4 | CCS(=O)(=O)c1ccc(C(=O)C2=C(O)CCCC2=O)c(C(F)(F)F)c1OC(C)C(=O)NC (stereo not shown) [Compound E11] |  |  |  |  |  |  |  |  |  |  |  |  |  | 90% | 80% | 90% | 100% | 100% | pest or weed control at 80 g/ha (Stellaria media [5]): 70%; Herbicidal action against VIOTR (VIOTR [14]): 90%; pest or weed control at 20 g/ha (Amaranthus retroflexus [8]): 100%; pest or weed control at 20 g/ha (Matricaria inodora [12]): 90%
5 | CCS(=O)(=O)c1ccc(C(=O)C2=C(O)CCCC2=O)c(Cl)c1OCC(=O)N(C)C [Compound S5, reference compound] | 90% | 100% | 100% | 90% | 90% | 100% | 90% | 80% | 40% | 20% | 60% | 80% | 100% |  |  |  |  |  | Herbicidal action against ALOMY (Alopecurus myosuroides): 0%
6 | CCN(C)C(=O)COc1c(S(C)(=O)=O)ccc(C(=O)C2=C(O)CCCC2=O)c1Cl [Compound S7, reference compound] | 80% | 100% | 80% | 100% | 90% | 100% | 90% | 70% | 60% | 10% | 90% | 90% | 100% |  |  |  |  |  | Herbicidal action against AVEFA (Avena fatua): 0%; pest or weed control at 80 g/ha (Matricaria inodora [12]): 80%
7 | CCS(=O)(=O)c1ccc(C(=O)C2=C(SCC(=O)OC)CCCC2=O)c(Cl)c1OCC(=O)N(C)C [Compound S9, reference compound] |  |  |  |  |  |  |  |  |  |  |  |  |  | 20% | 60% | 70% | 80% | 60% | pest or weed control at 80 g/ha (Amaranthus retroflexus [2]): 40%; pest or weed control at 80 g/ha (Veronica persica [6]): 20%; pest or weed control at 20 g/ha (Abutilon theophrasti [7]): 80%; pest or weed control at 20 g/ha (Echinochloa crus galli [9]): 90%
8 | CCS(=O)(=O)c1ccc(C(=O)C2=C(O)CCCC2=O)c(Cl)c1OC(C)C(=O)NC (stereo not shown) [Compound S11, reference compound] |  |  |  |  |  |  |  |  |  |  |  |  |  | 70% | 70% | 80% | 90% | 70% | pest or weed control at 80 g/ha (Stellaria media [5]): 30%; Herbicidal action against VIOTR (VIOTR [14]): 40%; pest or weed control at 20 g/ha (Amaranthus retroflexus [8]): 90%; pest or weed control at 20 g/ha (Matricaria inodora [12]): 70%
